We go through six molecules from paper PMC10423278, “Delivered complementation in planta (DCIP) enables measurement of peptide-mediated protein delivery efficiency in plants” (Communications Biology, 2023).

For series [1], the system named is DCIP expressing N. benthamiana leaves. The experiment in a line: Delivered complementation in planta (DCIP), infiltrated leaf discs, confocal imaging of nuclear sfGFP/mCherry. The class given is cell-based, Nicotiana benthamiana. The following applies: for DCIP delivery signal, statistical significance vs water infiltration control: N = 6, Kruskal–Wallis/Dunn. The protocol: The DCIP protocol involves transient expression of DCIP in N. benthamiana. 3 d.p.i., leaves are infiltrated with an aqueous solution of cargo that contains the GFP11 tag. Immediately after infiltration, the infiltrated leaves are either left intact or a leaf disc is excised from the infiltrated area and plated on pH 5.7 ½ MS. After a predetermined incubation time, the leaves are imaged on a confocal laser scanning microscope. For quantitative imaging, the resulting images are then automatically analyzed using Cell Profiler[30] for nuclear sfGFP and mCherry fluorescence (Fig. 1a). A detailed methodology is provided in the “Methods” section.
Three days after agroinfiltration, DCIP-expressing leaves were infiltrated with the treatment solutions. Unless otherwise stated, an 8 mm punch was then excised from the infiltrated area and plated, abaxial side up, onto ½ MS pH 5.7 agar plates. The plates were then left to incubate under ambient conditions for 4–5 h before imaging. For cold temperature treatment, after infiltration with ice-cold solutions of R9-GFP11 and disc excision, the leaf discs were plated onto ice-cold agar and immediately transferred to a 4 °C refrigerator for incubation. After incubation, the agar plates with leaf discs were kept on ice until the moment of imaging. For in situ incubation, leaves were simply infiltrated and the plant was returned to the growing chamber for incubation. All peptides were dissolved in sterile water and all recombinant proteins were dissolved in 10 mM Tris pH 7.4, 10 mM NaCl for infiltration.
Excised leaf discs were imaged on a Zeiss LSM880 laser scanning confocal microscope. Images for semi-quantitative analysis were collected using a ×20/1.0NA Plan-apochromat water immersion objective and larger field-of-views were collected using a ×5 objective. Leaf discs were mounted by sandwiching a droplet of water between the leaf disc and a #1.5 cover glass. BFP, sfGFP, mCherry, and chloroplast autofluorescence images were acquired by excitation with a 405, 488, 561, and 635 nm laser, respectively. The emission bands collected for BFP, sfGFP, mCherry, and autofluorescence were 410–529, 493–550, 578–645, and 652–728 nm, respectively. All images were collected such that the aperture was set to 1 Airy-unit in the mCherry channel. Images and profile plots were prepared for publication using Zen Blue software. Profile plots were smoothed by taking a moving window of three measurements and normalized to the maximum smoothed intensity for each color. For quantification experiments, z-stacks were acquired with the imaging depth set to capture the epidermal layer down to the point where mCherry nuclei could no longer be detected. z-stacks from four fields of view were acquired for every treatment condition. Quantitative image analysis and downstream processing was performed using Cell Profiler 3.0. […] Cell Profiler was then used to quantify the number, mCherry intensity, GFP intensity, and red (mCherry)/green (sfGFP) ratio of the projected nuclei.
Data obtained from Cell Profiler was processed using a script written in Python 3.9. Using the Cell Profiler data, GFP positive nuclei were counted using a Python script by setting a threshold defined as a one-tailed 99% confidence interval above the mean green/red ratio in the untreated control or water infiltration control of each experiment. […]

For the next series, the system named is f-actin. The experiment in a line: cytoDCIP delivery-mediated actin labeling (Lifeact/f-actin scaffolding). The class given is cell-based, Nicotiana benthamiana. An excerpt:
After confirming that recombinant proteins could be efficiently delivered into plant cells with R9 CPP, we asked if delivered proteins could subsequently mediate protein–protein interactions. Being able to mediate protein–protein interactions using delivered proteins could enable new technologies that alter plant physiology. Therefore, in a proof-of-concept experiment, we delivered the 1.9 kDa f-actin binding peptide, Lifeact[50], tagged with GFP11 and R9 (Fig. 6a) into cytoDCIP expressing N. benthamiana leaves. In this scheme, when Lifeact is internalized, GFP11 acts as a scaffold to tether cytoDCIP to actin filaments through the Lifeact/f-Actin interaction. […]
Excised leaf discs were imaged on a Zeiss LSM880 laser scanning confocal microscope. Images for semi-quantitative analysis were collected using a ×20/1.0NA Plan-apochromat water immersion objective and larger field-of-views were collected using a ×5 objective. […] For quantification experiments, z-stacks were acquired with the imaging depth set to capture the epidermal layer down to the point where mCherry nuclei could no longer be detected. z-stacks from four fields of view were acquired for every treatment condition. Quantitative image analysis and downstream processing was performed using Cell Profiler 3.0. […]

The test system of series [2] is cytoDCIP-expressing N. benthamiana leaf. The experiment in a line: cytoDCIP nuclear localization of delivered AtWUS. The following applies: 140 µM, leaf disc, 6 h. The class given is cell-based, Nicotiana benthamiana. An excerpt:
After establishing the feasibility of using DCIP to assess recombinant protein delivery in intact leaves, we sought to examine R9-mediated delivery of the Arabidopsis plant morphogenic transcription factor, WUSCHEL (AtWUS), in N. benthamiana leaves. AtWUS was chosen as a candidate cargo due to its applications for somatic embryogenesis in plants and its high degree of molecular characterization[54],[55]. […] Because AtWUS is a transcription factor, we also expected to see GFP11-AtWUS-R9 localize to the nucleus without the SV40 NLS of DCIP. To test this, we infiltrated a cytoDCIP-expressing N. benthamiana leaf with 140 µM GFP11-AtWUS-R9. If the delivered AtWUS has active NLS activity, we would expect green fluorescence localized to only the nucleus and excess, uncomplemented mCherry-GFP1-10 to remain in the cytosol. […]
Excised leaf discs were imaged on a Zeiss LSM880 laser scanning confocal microscope. Images for semi-quantitative analysis were collected using a ×20/1.0NA Plan-apochromat water immersion objective and larger field-of-views were collected using a ×5 objective. […] For quantification experiments, z-stacks were acquired with the imaging depth set to capture the epidermal layer down to the point where mCherry nuclei could no longer be detected. z-stacks from four fields of view were acquired for every treatment condition. […]

The subject of the next series is downstream AtWUS genes. The experiment in a line: RT-qPCR of direct targets of AtWUS in treated seedlings. It counts as in vivo, Arabidopsis thaliana. The following applies: 24 h. The protocol:
The previous results in N. benthamiana motivated us to determine whether or not the delivered AtWUS is transcriptionally active. We treated 12-day-old Arabidopsis seedlings for 24 h with 1 µM GFP11-AtWUS-R9. A. thaliana was chosen as a model species due to the well-characterized AtWUS pathway in A. thaliana. Seedlings were subsequently harvested and subjected to RT-qPCR analysis for six known direct targets of AtWUS (Fig. 7d). […] Ectopic expression of AtWUS downregulates the expression of cell identity markers ARR6, AS2, KAN1/2 and YAB3 by binding directly to their promoters[56],[57], and upregulates the expression of its own negative regulator, CLV3[58]. […] In this second experiment, 3 µM of protein was also used due to apparent batch-to-batch variation of activity and lower purity of the recombinant protein (Supplemental Fig. S12b, c).
Arabidopsis (Col-0) seedlings were grown in 12-well culture plates with 8–10 seedlings per well in 1 mL of 1x MS media supplemented with 0.5% sucrose and 2.5 mM MES, pH 5.7. Seeds were sterilized by washing in 70% ethanol for 30 s followed by a 15-min incubation in 50% bleach supplemented with 0.5% Tween-20 and rinsed 5x with DI water. Sterilized seeds were stratified in plates at 4 °C for 3 days after plating. Seedlings were grown at 22 °C under 16-h photoperiods for 12 days. To treat seedlings, the liquid media in each well was replaced with control and WUSCHEL treatments. Control wells were refreshed with 1 mL of MS growth media. WUSCHEL proteins were prepared for use by dialysis into 10 mM MES pH 5.7 for 2 h before dilution to their final concentration. Treatment wells were refreshed with 1 mL of 1 or 3 μM of protein (R9-GFP11, GFP11-AtWUS-R9, GFP11-AtWUS) dissolved in MS growth media. […]
Total RNA was extracted from Arabidopsis seedlings using an RNeasy Plant Mini Kit (Qiagen). […] Relative gene expression was determined using the ddCt method[80] using SAND1 as the reference gene. Relative gene expression was determined from four biological pools each containing 8–10 seedlings. […]

No end group written: not given here.

RDHMVLHEYVNAAGIT [GFP11]: the “DCIP delivery signal, statistical significance vs water infiltration control” value in series [1] (100 μM, 4–5 h) is “no statistically significant signal”. Take `C/C1=C/C(=O)O[C@@H]2C[C@@H](CC[C@H](C)/C=C\CC1)O[C@@](O)([C@@H]1CSC(=O)N1)C2` [LatB, latrunculin B, reference compound]: the “actin filaments on cotreatment with LatB” value in the series with f-actin (25 µM LatB cotreated with GFP11-Lifeact-R9, 6 h) is “no actin filaments were observed”. Turning to “RKKRRQRRRGSGSRDHMVLHEYVNAAGIT [TAT-GFP11]”, the “delivery efficiencies (percent GFP-positive nuclei)” value in series [1] (100 μM CPP-GFP11 conjugate, 4–5 h, N = 6) was 30–80%. In addition, in series [1] (100 μM, 4–5 h, N = 6), the “delivery efficiency normalized to R9 CPP” value is recorded as 0.87 times. `CC[C@H](C)[C@H](NC(=O)CNC(=O)[C@H](C)NC(=O)[C@H](C)NC(=O)[C@H](CC(N)=O)NC(=O)[C@@H](NC(=O)[C@H](Cc1ccc(O)cc1)NC(=O)[C@H](CCC(=O)O)NC(=O)[C@H](Cc1c[nH]cn1)NC(=O)[C@H](CC(C)C)NC(=O)[C@@H](NC(=O)[C@H](CCSC)NC(=O)[C@H](Cc1c[nH]cn1)NC(=O)[C@H](CC(=O)O)NC(=O)[C@H](CCCNC(=N)N)NC(=O)[C@H](CO)NC(=O)CNC(=O)[C@H](CO)NC(=O)CNC(=O)[C@H](CC(C)C)NC(=O)[C@H](Cc1ccc(O)cc1)NC(=O)[C@H](CCCCN)NC(=O)[C@H](CC(C)C)NC(=O)[C@@H](NC(=O)[C@H](CCCCN)NC(=O)[C@H](CCCCN)NC(=O)[C@H](Cc1ccccc1)NC(=O)[C@H](CC(C)C)NC(=O)[C@H](CCCCN)NC(=O)[C@@H](N)CCCCN)[C@@H](C)CC)C(C)C)C(C)C)C(=O)N[C@H](C(=O)O)[C@@H](C)O` [BP100-GFP11]: in series [1] (100 μM peptide, 4–5 h post-infiltration), the “sfGFP complementation observed by confocal imaging (qualitative)” value was “rare instances of successful delivery”. For the same molecule, the “DCIP delivery signal, statistical significance vs water infiltration control” value in series [1] (100 μM, 4–5 h) was “no statistically significant signal”. As for “MGSSHHHHHHENLYFQSNARDHMVLHEYVNAAGITGGGGSGGGGSYFQSNAMGVADLIKKFESISKEEGIGSGSNGNSGSVSRRRRRRRRR* [GFP11-Lifeact-R9]”, the “localization of sfGFP/mCherry signal in cytoDCIP leaves (actin filament labeling)” value with f-actin (120 µM, leaf discs, 6 h, pavement cells) is on record as “robust labeling of actin filaments”.

B1: GFP11-AtWUS: recombinant AtWUS with GFP11 tag, without R9 fusion, 38.5 kDa (plasmid 1BR9-AtWUSSTOP) (protein, UniProt Q9SB92 1-292, looked up)
Protein WUSCHEL: MEPPQHQHHHHQADQESGNNNNNKSGSGGYTCRQTSTRWTPTTEQIKILKELYYNNAIRSPTADQIQKITARLRQFGKIEGKNVFYWFQNHKARERQKKRFNGTNMTTPSSSPNSVMMAANDHYHPLLHHHHGVPMQRPANSVNVKLNQDHHLYHHNKPYPSFNNGNLNHASSGTECGVVNASNGYMSSHVYGSMEQDCSMNYNNVGGGWANMDHHYSSAPYNFFDRAKPLFGLEGHQEEEECGGDAYLEHRRTLPLFPMHGEDHINGGSGAIWKYGQSEVRPCASLELRLN
modifications: GFP11 tag
As to B1, the “nuclear localization of delivered protein in cytoDCIP leaf” value in series [2] is recorded as “possessed nuclear localization activity”. Moreover, the “CLV3 expression in GFP11-AtWUS-treated plants” value in the series on downstream AtWUS genes (3 µM) is on record as “CLV3 downregulation”. For the same molecule, the “tested AtWUS target genes regulated in an expected manner, first experimental repeat” value in the series on downstream AtWUS genes (3 µM, six genes, N = 4) is given as 3/6. Further, the “tested AtWUS target genes regulated in an expected manner, second experimental repeat” value in the series with downstream AtWUS genes (six genes, N = 4, repeat) is given as 1/6.
